Laboratory results reported in patent US20090012088A1 (priority 2005, published 2009).
Entries after “also recorded” stand apart in the source; their conditions may differ.

How the values were obtained:
PARG = test: Table 2: small molecules tested for PARG inhibition activity (relative to PIP-1); format: biochemical
[1] = tested on: differentiated PC-12 and SK-N-SH cells; test: Cellular toxicity in differentiated PC-12 and SK-N-SH cells; format: cell-based; conditions: at concentrations up to 100 μM
Experimental: (§1) In vivo MPTP is metabolized to its active form, the 1-methyl-4-phenylpyridinium ion (MPP^+), and MPP^+ has proven very useful in a variety of cell culture models of PD. To determine the protective effect of PIP-1 on cells subjected to MPP^+ insult, PC-12 (differentiated as above) and SK-N-SH (differentiated with retinoic acid for 12 days) cells are treated with 10 μM MPP^+ and a range of PIP-1 concentrations, and cell death is assessed by propidium iodide staining and flow cytometry. […] As shown in FIGS. 20A and 20B, PIP-1 also protects differentiated PC-12 and SK-N-SH cells from rotenone-induced toxicity as well.
(§2) Protection of Rotenone and MPP^+ induced toxicity in PC-12 and SK-N-SH cells: SK-N-SH and PC-12 cells are neuronally differentiated as described above. 10 μM rotenone, 10 μM MPP^+ and various concentrations of PIP-1 or its derivatives are added to the cells and incubated for 72 h. The cells are then washed in PBS and the viability is determined by adding propidium iodide to 1 μg/mL and measuring the fluorescent intensity of each cell by flow cytometry.

[2] = tested on: MPTP-treated C57 Black mice; test: MPTP mouse model of PD, striatal monoamine levels; format: in vivo
Experimental: As a prelude to assessment of PIP-1 in a mouse model of PD, the ability of PIP-1 to penetrate the blood-brain-barrier is first assessed. PIP-1 is injected i.p. at a dose of 50 mg/kg, and mice are sacrificed at 1 and 2 h post injection. After sacrifice, to establish the presence of PIP-1 in the brain the striatum was dissected, sonicated in perchloric acid, and centrifuged. The clarified supernatant is analyzed by HPLC. No endogenous compounds interfere with this assay for PIP-1 as no signal is detected in dissected striata from non-treated mice. As shown by FIG. 21A, the striatal penetrance of PIP-1 is at the level of 70 ng/mg of protein. […] Given this blood-brain-barrier penetrance by PIP-1, the compound is assessed in the MPTP mouse model of PD. Mice are given a one-time i.p. injection of PIP-1 followed 30 minutes later by an injection of MPTP (30 mg/kg). PIP-1 is assessed at concentrations of 0 mg/kg, 1 mg/kg, 5 mg/kg, 10 mg/kg, and 50 mg/kg, and five mice are used in each group. After 30 days, the mice are sacrificed and the striatum dissected and analyzed by HPLC to determine the levels of dopamine and various dopamine metabolites. […]

[3] = Assessment of PIP-1 levels in the brain (blood-brain-barrier penetrance); format: in vivo, mice; conditions: 50 mg/kg i.p.
Experimental: As a prelude to assessment of PIP-1 in a mouse model of PD, the ability of PIP-1 to penetrate the blood-brain-barrier is first assessed. PIP-1 is injected i.p. at a dose of 50 mg/kg, and mice are sacrificed at 1 and 2 h post injection. After sacrifice, to establish the presence of PIP-1 in the brain the striatum was dissected, sonicated in perchloric acid, and centrifuged. The clarified supernatant is analyzed by HPLC. No endogenous compounds interfere with this assay for PIP-1 as no signal is detected in dissected striata from non-treated mice. As shown by FIG. 21A, the striatal penetrance of PIP-1 is at the level of 70 ng/mg of protein. […] Given this blood-brain-barrier penetrance by PIP-1, the compound is assessed in the MPTP mouse model of PD. […] PIP-1 is assessed at concentrations of 0 mg/kg, 1 mg/kg, 5 mg/kg, 10 mg/kg, and 50 mg/kg, and five mice are used in each group. After 30 days, the mice are sacrificed and the striatum dissected and analyzed by HPLC to determine the levels of dopamine and various dopamine metabolites.
Assessment of PIP-1 levels in the brain: PIP-1 was injected into mice i.p. at 50 mg/kg and were sacrificed at 1 and 2 h post injection. […] The clarified supernatant was then injected into an HPLC and the concentration of PIP-1 was determined by comparison to a standard curve. […]

[4] = tested on: neuronally differentiated SK-N-SH cells; test: Protection from rotenone induced toxicity in neuronally differentiated SK-N-SH cells; format: cell-based; conditions: Homo sapiens, 10 μM rotenone
Experimental: as §1
Cell culture conditions: HL-60 and SK-N-SH cells are grown in RPMI 1640 media supplemented with 10% FBS and PC-12 cells are grown in RPMI 1640 media supplemented with 10% HS and 5% FBS. All cell lines are incubated at 37° C. in a 5% CO2, 95% air atmosphere. HL-60 cells are split every two to three days as needed and SK-N-SH cells are split when they reach approximately 90% confluency at a 1:6 ratio. […]
as §2, with “10 μM rotenone, 10 μM MPP^+ and various concentrations of PIP-1 or its derivatives are added to the cells and incubated for 72 h.” left out

CN(C)c1cnn(-c2ccccc2)c(=O)c1N [PIP-1, 4-Amino-5-dimethylamino-2-phenyl-2H-pyridazin-3-one]
Activity (PARG): good | Cellular toxicity / adverse effects on differentiated neurons [1]: no adverse effects; also recorded: no cellular toxicity | Striatal levels of dopamine and dopamine metabolites (DOPAC, HVA) in MPTP-treated mice ([2]; 50 mg/kg PIP-1 i.p. 30 min before MPTP 30 mg/kg, after 30 days): very similar to the control mice | Effect of PIP-1 by itself on levels of dopamine or dopamine metabolites ([2]; mice, without MPTP): does not appear to have any adverse effects | Striatal penetrance of PIP-1 ([3]; mice, 1 and 2 h post injection, striatum): 70 ng/mg of protein | PIP-1 in peripheral blood ([3]; same time points): no detectable PIP-1 | EC50 [4]: 2180 nM
